# According to US20050251869A1, “Animal model for raising HDL-cholesterol with niacin” (priority 2004, published 2005):
# Like-named read-outs stand apart in the source and are kept apart here.
# Columns and labels:
# [1] = system: human ApoB 100 transgenic mice; details: experiments similar to Examples 1 and 2
# Text: (§1) Materials: The mice used in these studies were pathogen-free C57BI/6J mice of the following genotypes: (1) wild type; (2) hemizygous human CETP-transgenic (hCETP-tg); (3) hemizygous human apoB100-transgenic, and 4) hemizygous human CETP and apoB100 dual-transgenic mice. The transgenic mice were purchased from Taconic Laboratories, Germantown, N.Y., where they were generated by introduction of genomic DNA fragments that drive expression of human CETP and/or apoB100 in the mouse liver (8-10).
# [2] = system: human-CETP/human-apoA1 dual-transgenic mice; details: 1% niacin in diet, one week
# Text: In addition, hemizygous human-CETP/human-apolipoprotein A1 dual-transgenic mice were generated by cross-breeding homozygous human-CETP transgenic male mice, purchased from Taconic, with homozygous human-apolipoprotein A1 transgenic female mice, purchased from Jackson Laboratories.
# Methods: Mice used in this study express both human CETP and human apolipoprotein A1 genes. The mice were generated by cross-breeding homozygous human-CETP transgenic male mice with homozygous female human-apolipoprotein A1-transgenic mice. Female mice (˜10 weeks of age, 10/group) were fed a normal rodent chow diet (Purina 7012) with or without 1% niacin (milled with the feed). They were housed with normal lighting and were allowed access to food and water ad lib. After seven days of treatment, the mice were fasted for four hours and then euthanized. Blood samples were collected by cardiac puncture. Serum lipids (total cholesterol, HDL-cholesterol, TG and FFA, and lipoprotein profiles) were determined.
# [3] = system: hemizygous human CETP-transgenic (hCETP-tg) mice; test: Example 1: four-week niacin-in-diet study, serum lipids, hCETP-tg mice; format: in vivo, mouse; details: for change in HDL-C compared with untreated h-CETP-tg mice: 1% niacin in diet
# Text: as §1
# (§2) Methods: Male mice (hCETP-tg and wild type C57BI/6J control mice; ˜10 weeks of age; 5-7/group) were used in this study. The mice were fed a normal rodent chow diet (Purina 7012) along with varying levels of niacin (milled with diet, expressed as % by weight of diet). They were housed with normal lighting and were allowed access to food and water ad lib. Blood samples were obtained by retro-orbital plexus at one, two and three weeks of treatment. After the fourth week of treatment, the mice were fasted for four hours and then euthanized. After euthanization, blood samples were collected by cardiac puncture. Serum lipids (total cholesterol, HDL-cholesterol, TG and FFA, and lipoprotein profiles) were determined. Serum samples from four weeks of treatment were also measured for CETP enzyme activity.
# [4] = system: hemizygous human-CETP/ApoB100 dual transgenic mice
# Text: Methods: This example is a study of the lipid modulating effect of niacin in human CETP and Apo-B100 dual transgenic mice. These mice have a more human-like lipoprotein profile than WT mice, with a lower HDUnon-HDL-C ratio.
# Mice (hemizygous human-CETP/ApoB100 dual transgenic mice, ˜10 weeks of age, 7-8/group) were fed a normal rodent chow diet (Purina 7012) along with varying levels of niacin (milled with the feed). They were housed with normal lighting and were allowed access to food and water ad lib. Blood samples were obtained by retro-orbital plexus after one week of treatment. After two weeks of treatment, the mice were fasted for four hours and then euthanized. Blood samples were collected by cardiac puncture. Serum lipids (total cholesterol, HDL-cholesterol, TG and FFA, and lipoprotein profiles) were determined.
# hCETP-tg mice = details: for increase of HDL-C / reduction of TG: 1% niacin in diet
# Text: as §2
# Blood samples were obtained by retro-orbital plexus after one week of treatment, as in Example 1. After two weeks of treatment, the mice were fasted for four hours and then euthanized. Blood samples were collected by cardiac puncture. Serum lipids (total cholesterol, HDL-cholesterol, total triglyceride and FFA) were determined.
# [5] = system: wild type C57BI/6J control mice; details: for change in HDL-C compared with untreated WT mice: 1% niacin in diet
# Text: as §1, §2
# [6] = hCETP-tg mice, niacin in diet, appears dose-dependent
# [7] = lipoprotein profiles by size exclusion chromatography
# [8] = one week of treatment with niacin in diet
# [9] = size exclusion chromatography, after two weeks of treatment
smiles,measurement,setting,value
"O=C(O)c1cccnc1 [niacin, nicotinic acid]",level of HDL-C,[1],does not raise
same,elevation of HDL-C,[2]; female mice,~38%
same,reduction of TG,[2]; female mice,53%
same,reduction of non-HDL-C,[2]; female mice,39%
same,Non-HDL-C,[2]; male mice,did not change significantly
same,elevation of HDL-C,[2]; male mice,27%
same,reduction of TG,[2]; male mice,36%
same,change in HDL-C compared with untreated h-CETP-tg mice,[3]; 1 week,+40%
same,change in HDL-C compared with untreated h-CETP-tg mice,[3]; 2 weeks,+38%
same,change in HDL-C compared with untreated h-CETP-tg mice,[3]; 3 weeks,+37%
same,change in HDL-C compared with untreated h-CETP-tg mice,[3]; 4 weeks,+23%
same,FFA,[3]; [6],reduction
same,HDL-cholesterol,[3]; [6],increase
same,TG,[3]; [6],reduction
same,non-HDL cholesterol,[3]; [6],reduction
same,TG in the VLDL fractions,[3]; [7],decline
same,cholesterol in the HDL fractions,[3]; [7],rise
same,increase in HDL-C,"[4]; 0.1% niacin in diet, two weeks",41%
same,decrease in HDL-C,"[4]; 0.3% niacin in diet, two weeks",5%
same,increase in HDL-C,"[4]; 1% niacin in diet, two weeks",15%
same,TC and TG,[4]; [8],decrease
same,amount of HDL-C,[4]; [8],without a significant change
same,TG in the VLDL and LDL fractions,[4]; [9],decrease
same,cholesterol in the HDL fractions,[4]; [9],increase
same,cholesterol in the LDL fractions,[4]; [9],decrease
same,increase of HDL-C,hCETP-tg mice; one week of treatment,35%
same,reduction of TG,hCETP-tg mice; one week of treatment,44%
same,increase of HDL-C,hCETP-tg mice; two weeks of treatment,37%
same,reduction of TG,hCETP-tg mice; two weeks of treatment,45%
same,HDL particle size,hCETP-tg mice; [7],without significant change
same,"TG contents of VLDL, LDL and HDL particles",hCETP-tg mice; [7],all reduced
same,cholesterol content in the HDL particles,hCETP-tg mice; [7],increase
same,cholesterol content of the LDL and VLDL particles,hCETP-tg mice; [7],reduced
same,change in HDL-C compared with untreated WT mice,[5]; 1 week,−9%
same,change in HDL-C compared with untreated WT mice,[5]; 2 weeks,−17%
same,change in HDL-C compared with untreated WT mice,[5]; 3 weeks,−13%
same,change in HDL-C compared with untreated WT mice,[5]; 4 weeks,−7%
same,"serum lipids, including TG, total cholesterol, HDL-C, non-HDL-C, and FFA","[5]; wild-type control mice, niacin in diet",broad reduction
